Test results reported in patent publication US10202380B2, “Pesticidally active tetracyclic derivatives with sulfur containing substituents” (Syngenta Participations AG, priority 2015, dated 2019).

Key:
Assay type in all cases: in vivo
[1] = test system: Euschistus heros; assay: Euschistus heros (Neotropical Brown Stink Bug); conditions: in Glycine max, 120 h, read-out: effect in at least one of the two categories (mortality or growth inhibition)
Procedure: Soybean leaves on agar in 24-well microtiter plates were sprayed with aqueous test solutions prepared from 10,000 ppm DMSO stock solutions. After drying the leaves were infested with N2 nymphs. The samples were assessed for mortality and growth inhibition in comparison to untreated samples 5 days after infestation.

[2] = test system: Diabrotica balteata; assay: Diabrotica balteata (Corn Root Worm); conditions: 96 h, read-out: effect in at least one of the two categories (mortality or growth inhibition)
Procedure: Maize sprouts placed onto an agar layer in 24-well microtiter plates were treated with aqueous test solutions prepared from 10,000 ppm DMSO stock solutions by spraying. After drying, the plates were infested with L2 larvae (6 to 10 per well). The samples were assessed for mortality and growth inhibition in comparison to untreated samples 4 days after infestation.

[3] = test system: Myzus persicae; assay: Myzus persicae (Green Peach Aphid): Feeding/Contact Activity; conditions: foliar, 144 h
Procedure: Sunflower leaf discs were placed onto agar in a 24-well microtiter plate and sprayed with aqueous test solutions prepared from 10,000 ppm DMSO stock solutions. After drying, the leaf discs were infested with an aphid population of mixed ages. The samples were assessed for mortality 6 days after infestation.

[4] = test system: Plutella xylostella; assay: Plutella xylostella (Diamond Back Moth); conditions: 120 h, read-out: effect in at least one of the two categories (mortality or growth inhibition)
Procedure: 24-well microtiter plates with artificial diet were treated with aqueous test solutions prepared from 10,000 ppm DMSO stock solutions by pipetting. After drying, the plates were infested with L2 larvae (10 to 15 per well). The samples were assessed for mortality and growth inhibition in comparison to untreated samples 5 days after infestation.

[5] = test system: Spodoptera littoralis; assay: Spodoptera littoralis (Egyptian Cotton Leaf Worm), compound in agar absorbed by lettuce roots; conditions: 144 h, read-out: effect in at least one of the three categories (mortality, anti-feeding, or growth inhibition)
Procedure: Test compounds were applied by pipette from 10,000 ppm DMSO stock solutions into 24-well plates and mixed with agar. Lettuce seeds were placed onto the agar and the multi well plate was dosed by another plate which contained also agar. After 7 days the compound was absorbed by the roots and the lettuce grew into the lid plate. The lettuce leaves were then cut off into the lid plate. Spodoptera eggs were pipetted through a plastic stencil onto a humid gel blotting paper and the lid plate was closed with it. The samples were assessed for mortality, anti-feedant effect and growth inhibition in comparison to untreated samples 6 days after infestation.

[6] = test system: Spodoptera littoralis; assay: Spodoptera littoralis (Egyptian Cotton Leaf Worm), sprayed cotton leaf discs; conditions: foliar, 72 h, read-out: control (mortality, anti-feedant effect, growth inhibition)
Procedure: Cotton leaf discs were placed onto agar in 24-well microtiter plates and sprayed with aqueous test solutions prepared from 10,000 ppm DMSO stock solutions. After drying the leaf discs were infested with five L1 larvae. The samples were assessed for mortality, anti-feeding effect, and growth inhibition in comparison to untreated samples 3 days after infestation. Control of Spodoptera littoralis by a test sample is given when at least one of the categories mortality, anti-feedant effect, and growth inhibition is higher than the untreated sample.

CCSc1c(-c2nc3cc(C(F)(F)F)n(CC)c(=O)c3n2C)sc2ccccc12 [Compound A1, 5-ethyl-2-(3-ethylsulfanylbenzothiophen-2-yl)-3-methyl-6-(trifluoromethyl)imidazo[4,5-c]pyridin-4-one]
≥ 80%: percent control (mortality or growth inhibition) at 200 ppm [1] | percent control (mortality or growth inhibition) at 200 ppm [2] | mortality at 200 ppm [3] | percent control (mortality or growth inhibition) at 200 ppm [4]

CCn1c(C(F)(F)F)cc2nc(-c3sc4ccccc4c3S(=O)(=O)CC)n(C)c2c1=O [Compound A2, 5-ethyl-2-(3-ethylsulfonylbenzothiophen-2-yl)-3-methyl-6-(trifluoromethyl)imidazo[4,5-c] pyridin-4-one]
≥ 80%: percent control (mortality or growth inhibition) at 200 ppm [1] | percent control (mortality, anti-feedant effect or growth inhibition) at 12.5 ppm [5] | percent control (mortality or growth inhibition) at 200 ppm [2] | mortality at 200 ppm [3] | mortality at 200 ppm [6] | percent control (mortality or growth inhibition) at 200 ppm [4]
